In patent publication US20030176314A1, “Compounds for the treatment of pain” (priority 2001, published 2003):

Target: T1, human α1B adrenergic receptor (Homo sapiens, UniProt P35368)
T1 construct: host or cells: LM(tk-) cells, line L-α1B
T1 sequence (P35368 1-520): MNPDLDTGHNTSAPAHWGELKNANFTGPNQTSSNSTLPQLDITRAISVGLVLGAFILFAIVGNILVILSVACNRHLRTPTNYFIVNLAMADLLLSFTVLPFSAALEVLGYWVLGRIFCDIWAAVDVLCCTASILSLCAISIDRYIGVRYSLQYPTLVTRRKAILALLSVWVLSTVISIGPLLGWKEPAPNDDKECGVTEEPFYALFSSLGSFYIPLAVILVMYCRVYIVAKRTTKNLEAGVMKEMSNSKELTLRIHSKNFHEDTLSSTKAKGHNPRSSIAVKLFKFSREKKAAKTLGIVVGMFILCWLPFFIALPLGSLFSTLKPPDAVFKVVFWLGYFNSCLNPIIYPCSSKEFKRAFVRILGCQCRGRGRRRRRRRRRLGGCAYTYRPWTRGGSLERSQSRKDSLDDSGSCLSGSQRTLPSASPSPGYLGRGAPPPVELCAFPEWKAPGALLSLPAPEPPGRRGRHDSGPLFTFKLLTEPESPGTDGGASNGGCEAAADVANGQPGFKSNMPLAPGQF
Experiment: Binding at human α1B adrenergic receptor
Conditions: Table 8; read-out: hα1B Ki
Source text: α1 Human Adrenergic Receptors: To determine the binding of compounds to human α1 receptors, LM(tk−) cell lines stably transfected with the genes encoding the α1a, α1b, and α1d receptors were used. The nomenclature describing the α1 receptors was changed recently, such that the receptor formerly designated α1a is now designated α1d, and the receptor formerly designated α1c is now designated α1a. The cell lines expressing these receptors were deposited with the ATCC before the nomenclature change and reflect the subtype designations formerly assigned to these receptors. Thus, the cell line expressing the receptor described herein as the α1a receptor was deposited with the ATCC on Sep. […] The cell line expressing receptor described herein as the α1d receptor was deposited with the ATCC on Sep. […] The cell line expressing the α1b receptor is designated L-α1B, and was deposited on Sep.
The binding affinity (Ki) of these compounds were tested according to the protocols described herein at the following receptors; human α1A, α1B, α1D, α2A, α2B, and α2C adrenergic receptors; human Y1, Y2, Y4, and Y5 receptors; and N-Methyl-D-aspartic acid (NMDA) receptor channels. The binding interactions of these compounds were additionally tested at the norepinephrine (NE) transporter (NE uptake) and serotonin (5-hydroxytryptamine (5HT)) transporter (5HT uptake) according to protocols described herein

`Cc1nc(NC(=N)N)nc2ccc3ccccc3c12` [Compound 1007A] showed a Ki of 3.04 µM.
